Experimental data taken from patent publication US20110306668A1 (NATIONAL TSING HUA UNIVERSITY, priority 2010, published 2011).
pIC50: −log10 of the molar value.

Tests used:
Type in all cases: cell-based
[1] = test system: A549 (Human type II epithelial cell line); assay: Cytotoxicity by MTT assay, A549 cells; settings: 48 h, incubation of 2 days, read-out: IC50 values, inhibition of growth of cells
Experimental: (§1) The cell lines were used in the present invention, including C26 (solid murine colon carcinoma), A549 (Human type II epithelial cell line, from American Type Culture Collection, Manassas, Va.), MCF7 (solid human estrogen receptor positive breast carcinoma) and Tramp C1 (transgenic adenocarcinoma of the mouse prostate).
(§2) 10 μL combinatorial compound was added into the well of microtiterplate planted with 100 μL of abovementioned cell lines in a concentration of 30000 cells/mL. After an incubation of 2 days, the supernatants were washed, followed by adding MTT reagents. After 4 hrs, absorbance at 580 nm was recorded according to the usual protocol.

[2] = test system: C26 (solid murine colon carcinoma); assay: Cytotoxicity by MTT assay, C26 cells; settings: Mus musculus, 48 h, incubation of 2 days, read-out: IC50 values, inhibition of growth of cells
Experimental: as §1, §2

[3] = test system: Tramp C1 (transgenic adenocarcinoma of the mouse prostate); assay: Cytotoxicity by MTT assay, TRAMP C-1 cells; settings: for pIC50: Mus musculus, TRAMP-C1, 48 h, TRAMP C-1 cells, MTT, incubation of 2 days, read-out: IC50 values, inhibition of growth of cells
Experimental: as §1, §2

[4] = test system: MCF7 (solid human estrogen receptor positive breast carcinoma); assay: Cytotoxicity by MTT assay, MCF7 cells; settings: 48 h, incubation of 2 days, read-out: IC50 values, inhibition of growth of cells
Experimental: as §1, §2

Row | Structure (SMILES) | pIC50 [1] | pIC50 [2] | pIC50 [3] | pIC50 [4] | cytotoxicity against Tramp C-1 cell ([3]; Tramp C-1 cell, result in words)
1 | O=C(O)CCC(=O)c1ccc(-c2ccccc2)cc1 [Fenbufen, 4-(biphenyl-4-yl)-4-oxobutanoic acid, reference compound] | < 4.00 | < 4.00 | < 4.00 | – | –
2 | Cc1ccc(C)c(OCCCC(C)(C)C(=O)NCCCCNC(=O)CCC(=O)c2ccc(-c3ccccc3)cc2)c1 [compound 12, N-(4-(4-(biphenyl-4-yl)-4-oxobutanamido)butyl)-5-(2,5-dimethylphenoxy)-2,2-dimethylpentanamide] | 5.05 | 4.82 | 4.68 | 5.70 | –
3 | CCCCC(CC)C(=O)NCCCCNC(=O)CCC(=O)c1ccc(-c2ccccc2)cc1 (stereo not shown) [compound 13, N-(4-(4-(biphenyl-4-yl)-4-oxobutanamido)butyl)-2-ethylhexanamide] | 4.77 | 4.82 | 4.74 | > 6.00 | –
4 | C=C(CC)C(=O)c1ccc(OCC(=O)NCCCCNC(=O)CCC(=O)c2ccc(-c3ccccc3)cc2)c(Cl)c1Cl [compound 14, 4-(biphenyl-4-yl)-N-(4-(2-(2,3-dichloro-4-(2-methylenebutanoyl)phenoxy)acetamido)butyl)-4-oxobutanamide] | 4.72 | 4.46 | < 4.00 | 5.30 | void of cytotoxicity
